Data published in patent US8772321B2, “Heteroannelated anthraquinone derivatives for inhibiting cancers” (National Defense Medical Center, priority 2008, dated 2014).

Experiments:
SAS cells = test: SAS tumor xenograft in mouse; assay type: in vivo; details: 2 mg/kg/day, 10 days
Procedure: Furthermore, we tested the effects of NSC745885 on tumor size in mouse. This experiment had two animal groups: one is administered after tumor xenograft transplantation with PBS (Control, FIG. 13, Panel A) and the other with NSC745885 (2 mg/kg/day, FIG. 13, Panel B). The mice were euthanized after 10 days and the tumor tissues were immediately isolated. […] (FIG. 13, Panel C).

MBT2 = test: Cell proliferation inhibition, bladder cancer cell line; assay type: cell-based; details: MBT2 bladder cancer cells, 2.5 uM
Description: (§1) To investigate the cell proliferation inhibition effect of NSC745885 in cancer cells, we compared the cancer cell proliferation inhibition effect of the NSC745885 with well-know bladder anti-cancer agent “Emodin” and clinical cancer chemical therapy agent “Doxorubicin”. The experiment bladder cancer cell lines includes T24 (FIG. 9A, 9D) and MBT2 (FIG. 9 B, 9E). We also confirm the NSC745885 cell toxicity using the non-cancer cell fibroblast 3T3 (FIG. 9C) and normal epithelial cell SV_UC—1 (FIG. 9F).

T24 = test: as above; assay type: cell-based; details: T24 bladder cancer cells, 2.5 uM
Description: as §1

A498 = test: NCI 60-cell panel dose-response; assay type: cell-based; details: Homo sapiens; A498 (Renal cancer)
HL-60(TB) = test: NCI 60-cell panel dose-response; assay type: cell-based, human; details: HL-60(TB) (Leukemia)
M14 = test: NCI 60-cell one dose screen; assay type: cell-based, human; details: M14 (Melanoma); 10^−5M
Procedure: (§2) NSC745885 was studied as a prototype for anti-proliferative activity against human cancer cell lines in NCI Drug Screen Program (Table 1, below). NSC745885 was evaluated in the full panel of human tumor cell lines derived from nine cancer cell types (leukemia, non-small cell lung cancer, colon cancer, CNS cancer, prostate cancer, melanoma, ovarian cancer, renal cancer and breast cancer). Each subpanel uses several cell lines and dose-response curves were drawn against the decadic logarithm (log 10) of the corresponding drug concentrations for each cell line by the subpanel group. They were also evaluated in the 60 cell line panel and anticancer assay was performed in accordance with the protocol of developmental therapeutics program (one dose mean graph). Results for each compound were reported as the proliferation percentage of the treated cells with that of the untreated control cells being 100. For each of these parameters the averaged values of mean graph midpoint (MG_MID) were calculated.

HCC-2998 = test: NCI 60-cell one dose screen; assay type: cell-based, human; details: HCC-2998 (Colon cancer); 10^−5M
Procedure: as §2

A549/ATCC [1] = test: NCI 60-cell one dose screen; assay type: cell-based, human; details: A549/ATCC (Non-small cell lung cancer); 10^−5M; untreated control 100
Procedure: as §2

SK-MEL-2 = test: NCI 60-cell one dose screen; assay type: cell-based, human; details: SK-MEL-2 (Melanoma); 10^−5M
Procedure: as §2

RPMI-8226 = test: NCI 60-cell one dose screen; assay type: cell-based, human; details: RPMI-8226 (Leukemia); 10^−5M
Procedure: as §2

DU-145 = test: NCI 60-cell one dose screen; assay type: cell-based, human; details: DU-145 (Prostate cancer); 10^−5M
Procedure: as §2

MCF7 = test: NCI 60-cell one dose screen; assay type: cell-based, human; details: MCF7 (Breast cancer); 10^−5M
Procedure: as §2

RXF393 = test: NCI 60-cell one dose screen; assay type: cell-based, human; details: RXF393 (Renal cancer); 10^−5M
Procedure: as §2

NCI-H23 = test: NCI 60-cell one dose screen; assay type: cell-based, human; details: NCI-H23 (Non-small cell lung cancer); 10^−5M
Procedure: as §2

SK-MEL-28 = test: NCI 60-cell one dose screen; assay type: cell-based, human; details: SK-MEL-28 (Melanoma); 10^−5M
Procedure: as §2

SF-268 = test: NCI 60-cell one dose screen; assay type: cell-based, human; details: SF-268 (CNS cancer); 10^−5M
Procedure: as §2

EKVX = test: NCI 60-cell one dose screen; assay type: cell-based, human; details: EKVX (Non-small cell lung cancer); 10^−5M
Procedure: as §2

SW-620 = test: NCI 60-cell one dose screen; assay type: cell-based, human; details: SW-620 (Colon cancer); 10^−5M
Procedure: as §2

SNB-75 = test: NCI 60-cell one dose screen; assay type: cell-based, human; details: SNB-75 (CNS cancer); 10^−5M
Procedure: as §2

U251 = test: NCI 60-cell one dose screen; assay type: cell-based, human; details: U251 (CNS cancer); 10^−5M
Procedure: as §2

SF-539 = test: NCI 60-cell one dose screen; assay type: cell-based, human; details: SF-539 (CNS cancer); 10^−5M
Procedure: as §2

SF-295 = test: NCI 60-cell one dose screen; assay type: cell-based, human; details: SF-295 (CNS cancer); 10^−5M
Procedure: as §2

SK-OV-3 = test: NCI 60-cell one dose screen; assay type: cell-based, human; details: SK-OV-3 (Ovarian cancer); 10^−5M
Procedure: as §2

CCRF-CEM = test: NCI 60-cell one dose screen; assay type: cell-based, human; details: CCRF-CEM (Leukemia); 10^−5M
Procedure: as §2

NCI/ADR-RES = test: NCI 60-cell one dose screen; assay type: cell-based, human; details: NCI/ADR-RES (Ovarian cancer); 10^−5M
Procedure: as §2

MOLT-4 = test: NCI 60-cell one dose screen; assay type: cell-based, human; details: MOLT-4 (Leukemia); 10^−5M
Procedure: as §2

TK-10 = test: NCI 60-cell one dose screen; assay type: cell-based, human; details: TK-10 (Renal cancer); 10^−5M
Procedure: as §2

HT29 = test: NCI 60-cell one dose screen; assay type: cell-based, human; details: HT29 (Colon cancer); 10^−5M
Procedure: as §2

OVCAR-8 = test: NCI 60-cell one dose screen; assay type: cell-based, human; details: OVCAR-8 (Ovarian cancer); 10^−5M
Procedure: as §2

A549/ATCC [2] = test: NCI 60-cell panel dose-response; assay type: cell-based; details: Homo sapiens; A549/ATCC (Non-small cell lung cancer)
60 cancer cell lines = test: NCI 60-cell one dose screen, whole panel; assay type: cell-based, human; details: 10^−5M
Procedure: as §2

Structure (SMILES): O=C1c2ccccc2C(=O)c2c1ccc1nsnc21 [NSC745885, anthra[2,1-c][1,2,5]thiadiazole-6,11-dione]
- body weight (SAS cells): not significantly decreased
- tumor size (SAS cells; versus PBS control): reduced
- cancer cell proliferation inhibition (MBT2): distinct cancer cell proliferation inhibition ability
- cancer cell proliferation inhibition (T24): distinct cancer cell proliferation inhibition ability
- GI50 (A498): 12.4 µM
- GI50 (HL-60(TB)): 0.16 µM
- TGI (HL-60(TB)): 0.40 µM
- proliferation percentage (M14): 74.54%
- proliferation percentage (HCC-2998): −0.74%
- proliferation percentage (A549/ATCC [1]): 104.18%
- proliferation percentage (SK-MEL-2): −73.16%
- proliferation percentage (RPMI-8226): −27.97%
- proliferation percentage (DU-145): 40.76%
- proliferation percentage (MCF7): −50.74%
- proliferation percentage (RXF393): 20.11%
- proliferation percentage (NCI-H23): 16.07%
- proliferation percentage (SK-MEL-28): 15.47%
- proliferation percentage (SF-268): 16.29%
- proliferation percentage (EKVX): 103.18%
- proliferation percentage (SW-620): 7.30%
- proliferation percentage (SNB-75): 79.03%
- proliferation percentage (U251): −89.26%
- proliferation percentage (SF-539): −47.11%
- proliferation percentage (SF-295): 126.17%
- proliferation percentage (SK-OV-3): 100.70%
- proliferation percentage (CCRF-CEM): −30.81%
- proliferation percentage (NCI/ADR-RES): −2.53%
- proliferation percentage (MOLT-4): −40.09%
- proliferation percentage (TK-10): 96.99%
- proliferation percentage (HT29): 116.95%
- proliferation percentage (OVCAR-8): −10.07%
- GI50 (A549/ATCC [2]): 14.7 µM
- proliferation percentage, Delta (60 cancer cell lines; delta of the one dose mean graph): 102.68%
- proliferation percentage, Mean (60 cancer cell lines; mean over the cell lines): 2.68%
- proliferation percentage, Range (60 cancer cell lines; range over the cell lines): 230.09%
